Values quoted from earlier work as cited in PMC4077824, “Conserved Prosegment Residues Stabilize a Late-Stage Folding Transition State of Pepsin Independently of Ground States” (PLoS ONE, 2014).
Where no end group is shown, it is not given here.

How the values were obtained:
[1] = molecular target: T1, native pepsin (Np) (Sus scrofa, UniProt P00791); settings: ref [7]; cited from earlier work
T1 construct: Only the R13 and K36 side-chains of the PS form hydrogen bonds with the mature pepsin domain; purchased Sigma (St. Louis, MO, USA)
T1 sequence (P00791 60-385): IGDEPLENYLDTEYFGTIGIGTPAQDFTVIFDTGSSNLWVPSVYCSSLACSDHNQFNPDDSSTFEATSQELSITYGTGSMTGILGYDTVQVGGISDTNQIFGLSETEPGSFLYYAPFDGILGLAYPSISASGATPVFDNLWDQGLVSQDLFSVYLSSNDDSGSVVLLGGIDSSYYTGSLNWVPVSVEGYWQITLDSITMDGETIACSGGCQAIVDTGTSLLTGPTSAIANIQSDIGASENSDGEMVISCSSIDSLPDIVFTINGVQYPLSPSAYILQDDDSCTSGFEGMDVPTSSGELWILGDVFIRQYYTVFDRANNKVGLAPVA
Excerpt: Figure 1 Zymogen-derived proteins deviate from common trends in protein folding. (A) Comparison of the non- and PS-catalyzed folding of αLP [8], SGPB [5] and pepsin [7]. (B) Relation between topology and folding rate for a number of two- and three-state folding proteins (circles, data taken from, [21], [22]). The folding rate of αLP (squares), SGPB (triangles) and pepsin (stars) is accelerated to the value (hollow points) expected based on the topology, only when the PS is included. (C) Reaction scheme of pepsin PS-catalyzed folding. […] It seems likely that the PS has achieved this higher affinity for the TS via a concerted optimization of side-chain packing, hydrogen bonding and electrostatics, as evidenced by polar, hydrophobic and charged groups selectively stabilizing the TS ( Fig 3A ). Furthermore, this concerted optimization likely involves both non-native and strengthened native contacts, given the range of interactions involved. In the native fold [ ...

[2] = test system: refolded pepsin (Rp); settings: 1H-15N TROSY NMR, absence of 100 mM NaCl; ref [51]; cited from earlier work
Method: Coarse-grain simulations have been used to understand the nature of non-native interactions in small, single-domain proteins lacking stable folding intermediates, [48], [49]. […] It would be challenging, but not impossible, to use similar coarse-grain approaches to model the folding of pepsinogen (370 residues). Using simulation to gain insigh ... || PS binding to Rp was measured in buffer without added 100 mM NaCl in order to obtain more accurate measurements of K d, owing to a larger change in signal in the absence of salt. Additionally, without added 100 mM NaCl it was possible to isolate the PS-Rp binding step from the catalyzed folding step thereby improving the determination of K d. […] However, ^1H-^15N TROSY NMR experiments indicated tha ...

LVKVPLVRKKSLRQNLIKNGKLKDFLKTHKHNPASKYFPEAAAL [WT]
affinity for Np [1]: nano- | folding of PS-Rp to native complex without 100 mM NaCl [2]: does fold to the native complex
